We go through eight compounds from patent US20050282755A1, “Compositions having antimicrobial activity and uses thereof” (priority 2004, published 2005).

Common to all, as to format: cell-based
Assay [1] has as its system Staphylococcus aureus ATCC 29213. Put plainly: MIC, NCCLS M7-A6 broth microdilution, cation-adjusted Mueller Hinton broth (Table 9, no superscript). The following applies: ATCC 29213. In short, it runs like this:
(§1)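 CAMHB microdilution; final inoculum 5×10^5–1×10^6 CFU/milliliter from log-phase culture; overnight, 37° C; MIC = lowest peptide conc. without visible growth (turbidity) vs no-peptide control.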
In general terms: Broth dilution looks for growth in wells or tubes with falling amounts of substance.

Assay [2] concerns Propionibacterium acnes ATCC 6919. Put plainly: MIC, agar dilution method NCCLS M11-A6, Brucella agar, anaerobic (Table 9, superscript c). Conditions: ATCC 6919. The essentials:
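Agar dilution per NCCLS M11-A6 on Brucella agar; final inoculum 1.5×10^8 CFU/milliliter applied to plates, incubated 48-96 hours at 37° C. under anaerobic (GasPak) conditions. MIC = lowest peptide concentration with no colony growth.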
Background: Agar dilution tests growth on a series of plates holding different concentrations.

The subject of a further assay is Salmonella dublin (Lane). Put plainly: MIC, NCCLS M7-A6 broth microdilution (Table 9, no superscript). In short, it runs like this:
as §1

In assay [3] the test system is Staphylococcus epidermidis ATCC 12228. Described as above. The following applies: ATCC 12228. The essentials:
as §1

Assay [4] relates to Escherichia coli ATCC 25922. Described as above. Conditions: ATCC 25922. In short, it runs like this:
as §1

Assay [5] relates to Pseudomonas aeruginosa ATCC 27853. Described as above. Conditions: ATCC 27853. In short, it runs like this: as §1

Each structure is given as a SMILES string. ≈ marks a conversion by molar mass, not a printed value. Non-standard residues stand in square brackets, D forms with d. Residues, ends and D or L forms follow the SMILES beside them. *: point of attachment. Lauroyl = CCCCCCCCCCCC(=O)*

For `CCCCCCCCCCCC(=O)N[C@@H](CCCNC(=N)N)C(=O)N[C@@H](Cc1c[nH]c2ccccc12)C(=O)N[C@@H](CCCNC(=N)N)C(=O)N[C@@H](C)C(=O)N[C@H](C(=O)N[C@@H](C)C(=O)N[C@@H](CCCNC(=N)N)C(N)=O)C(C)C` [Peptide 243, Lauryl-RWRAVAR-NH2] (Lauroyl-RWRAVAR-NH2), the “MIC S. aureus” value in assay [1] was 4 µg/mL (≈ 3.65 µM). For the same compound, the “MIC P. acnes” value in assay [2] is reported as over 64c ug/mL. Moreover, the “MIC S. dublin” value against Salmonella dublin (Lane) is over 64 µg/mL. In addition, the “MIC S. epidermidis” value in assay [3] worked out at 2 µg/mL (≈ 1.83 µM). In addition, the “MIC E. coli” value in assay [4] came to 32 µg/mL (≈ 29.2 µM). Besides, the “MIC P. aeruginosa” value in assay [5] is over 64 µg/mL.

Take `CCCCCCCCCCCC(=O)N[C@@H](CCCNC(=N)N)C(=O)N[C@@H](Cc1c[nH]c2ccccc12)C(=O)N[C@@H](CCCNC(=N)N)C(=O)N[C@@H](CC(=O)O)C(=O)N[C@H](C(=O)N[C@@H](C)C(=O)N[C@@H](CCCNC(=N)N)C(=O)N[C@@H](CC(N)=O)C(=O)N[C@@H](Cc1ccccc1)C(=O)N[C@@H](CC(C)C)C(=O)N[C@@H](CCCNC(=N)N)C(N)=O)C(C)C` [Peptide 163, Lauryl-RWRDVARNFLR-NH2] (Lauroyl-RWRDVARNFLR-NH2): in assay [1], the “MIC S. aureus” value was found to be 4 µg/mL (≈ 2.4 µM). Also, in assay [2], the “MIC P. acnes” value is recorded as over 64c ug/mL. Also, the “MIC S. dublin” value against Salmonella dublin (Lane) came out at 8 µg/mL (≈ 4.79 µM). Further, in assay [3], the “MIC S. epidermidis” value worked out at 8 µg/mL (≈ 4.79 µM). In addition, the “MIC E. coli” value in assay [4] was 16 µg/mL (≈ 9.58 µM). In assay [5], the “MIC P. aeruginosa” value was over 64 µg/mL.

`CCCCCCCCCCCC(=O)N[C@H](CCCNC(=N)N)C(=O)N[C@H](CO)C(=O)N[C@H](CCCNC(=N)N)C(=O)N[C@H](Cc1c[nH]c2ccccc12)C(=O)N[C@H](CCCNC(=N)N)C(=O)N[C@H](CC(=O)O)C(=O)N[C@@H](C(=O)N[C@H](C)C(=O)N[C@H](CCCNC(=N)N)C(=O)N[C@H](C)C(=O)N[C@H](Cc1ccccc1)C(=O)N[C@H](CC(C)C)C(=O)N[C@H](CCCNC(=N)N)C(N)=O)C(C)C` [Peptide 226, Lauryl-rsrwrdvaraflr-NH2] (Lauroyl-[dR][dS][dR][dW][dR][dD][dV][dA][dR][dA][dF][dL][dR]-NH2): the “MIC S. aureus” value in assay [1] was 8 µg/mL (≈ 4.28 µM). Also, in assay [2], the “MIC P. acnes” value amounted to 32c ug/mL. Also, the “MIC S. dublin” value in the assay on Salmonella dublin (Lane) amounted to 16 µg/mL (≈ 8.55 µM). Moreover, the “MIC S. epidermidis” value in assay [3] worked out at 4 µg/mL (≈ 2.14 µM). Further, in assay [4], the “MIC E. coli” value was 16 µg/mL (≈ 8.55 µM). The “MIC P. aeruginosa” value in assay [5] was over 64 µg/mL.

For `CCCCCCCCCCCC(=O)N[C@H](CCCNC(=N)N)C(=O)N[C@H](CC(C)C)C(=O)N[C@H](CCCNC(=N)N)C(=O)N[C@H](Cc1c[nH]c2ccccc12)C(=O)N[C@H](CCCNC(=N)N)C(=O)N[C@H](CCC(=O)O)C(=O)N[C@@H](C(=O)N[C@H](C)C(=O)N[C@H](CCCNC(=N)N)C(=O)N[C@H](CC(C)C)C(=O)N[C@H](Cc1ccccc1)C(=O)N[C@H](CC(C)C)C(=O)N[C@H](CCCNC(=N)N)C(N)=O)C(C)C` [Peptide 227, Lauryl-rlrwrevarlflr-NH2] (Lauroyl-[dR][dL][dR][dW][dR][dE][dV][dA][dR][dL][dF][dL][dR]-NH2), the “MIC S. aureus” value in assay [1] came out at 32 µg/mL (≈ 16.4 µM). Besides, the “MIC P. acnes” value in assay [2] was over 64c ug/mL. Also, in the assay with Salmonella dublin (Lane), the “MIC S. dublin” value was 32 µg/mL (≈ 16.4 µM). Also, the “MIC S. epidermidis” value in assay [3] came out at 32 µg/mL (≈ 16.4 µM). Besides, the “MIC E. coli” value in assay [4] came out at 64 µg/mL (≈ 32.8 µM). In assay [5], the “MIC P. aeruginosa” value is over 64 µg/mL.

Consider `CCCCCCCCCCCC(=O)N[C@@H](CCCNC(=N)N)C(=O)N[C@@H](Cc1c[nH]c2ccccc12)C(=O)N[C@@H](CCCNC(=N)N)C(=O)N[C@@H](CC(=O)O)C(=O)N[C@H](C(=O)N[C@@H](C)C(=O)N[C@@H](CCCNC(=N)N)C(=O)N[C@@H](CC(N)=O)C(=O)N[C@@H](Cc1ccccc1)C(=O)N[C@@H](CCSC)C(=O)N[C@@H](CCCNC(=N)N)C(N)=O)C(C)C` [Peptide 113, Lauryl-RWRDVARNFMR-NH2] (Lauroyl-RWRDVARNFMR-NH2), for which the “MIC S. aureus” value in assay [1] is 4 µg/mL (≈ 2.37 µM). In addition, the “MIC P. acnes” value in assay [2] is listed as over 64c ug/mL. Also, in the assay on Salmonella dublin (Lane), the “MIC S. dublin” value is 16 µg/mL (≈ 9.48 µM). Moreover, in assay [3], the “MIC S. epidermidis” value is 2 µg/mL (≈ 1.18 µM). The “MIC E. coli” value in assay [4] came to 8 µg/mL (≈ 4.74 µM). Moreover, the “MIC P. aeruginosa” value in assay [5] is over 64 µg/mL.

With `CCCCCCCCCCCC(=O)N[C@H](CCCNC(=N)N)C(=O)N[C@H](CCCCN)C(=O)N[C@H](CCCNC(=N)N)C(=O)N[C@H](Cc1c[nH]c2ccccc12)C(=O)N[C@H](CCCNC(=N)N)C(=O)N[C@H](CC(=O)O)C(=O)N[C@@H](C(=O)N[C@H](C)C(=O)N[C@H](CCCNC(=N)N)C(=O)N[C@H](CC(N)=O)C(=O)N[C@H](Cc1ccccc1)C(=O)N[C@H](CC(C)C)C(=O)N[C@H](CCCNC(=N)N)C(N)=O)C(C)C` [Peptide 219, Lauryl-rkrwrdvarnflr-NH2] (Lauroyl-[dR][dK][dR][dW][dR][dD][dV][dA][dR][dN][dF][dL][dR]-NH2), the “MIC S. aureus” value in assay [1] is 4 µg/mL (≈ 2.05 µM). Further, in assay [2], the “MIC P. acnes” value is 16c ug/mL. Further, in the assay on Salmonella dublin (Lane), the “MIC S. dublin” value came to 4 µg/mL (≈ 2.05 µM). Also, the “MIC S. epidermidis” value in assay [3] is 2 µg/mL (≈ 1.02 µM). The “MIC E. coli” value in assay [4] worked out at 8 µg/mL (≈ 4.09 µM). Moreover, the “MIC P. aeruginosa” value in assay [5] was determined as 4 µg/mL (≈ 2.05 µM).

With `CCCCCCCCCCCC(=O)N[C@H](CCCNC(=N)N)C(=O)N[C@H](CO)C(=O)N[C@H](CCCNC(=N)N)C(=O)N[C@H](Cc1c[nH]c2ccccc12)C(=O)N[C@H](CCCNC(=N)N)C(=O)N[C@H](C)C(=O)N[C@@H](C(=O)N[C@H](C)C(=O)N[C@H](CCCNC(=N)N)C(=O)N[C@H](CC(N)=O)C(=O)N[C@H](Cc1ccccc1)C(=O)N[C@H](CC(C)C)C(=O)N[C@H](CCCNC(=N)N)C(N)=O)C(C)C` [Peptide 225, Lauryl-rsrwravarnflr-NH2] (Lauroyl-[dR][dS][dR][dW][dR][dA][dV][dA][dR][dN][dF][dL][dR]-NH2), the “MIC S. aureus” value in assay [1] was found to be 1 µg/mL (≈ 0.535 µM). Moreover, in assay [2], the “MIC P. acnes” value is on record as 8c ug/mL. The “MIC S. dublin” value with Salmonella dublin (Lane) came out at 1 µg/mL (≈ 0.535 µM). Also, the “MIC S. epidermidis” value in assay [3] was found to be 2 µg/mL (≈ 1.07 µM). In addition, the “MIC E. coli” value in assay [4] amounted to 16 µg/mL (≈ 8.56 µM). The “MIC P. aeruginosa” value in assay [5] came out at 16 µg/mL (≈ 8.56 µM).

Regarding `CCCCCCCCCCCC(=O)N[C@@H](Cc1c[nH]c2ccccc12)C(=O)N[C@@H](CCCNC(=N)N)C(=O)N[C@@H](CC(=O)O)C(=O)N[C@H](C(=O)N[C@@H](C)C(=O)N[C@@H](CCCNC(=N)N)C(=O)N[C@@H](CC(N)=O)C(N)=O)C(C)C` [Peptide 106, Lauryl-WRDVARN-NH2] (Lauroyl-WRDVARN-NH2), the “MIC S. aureus” value in assay [1] turned out to be 8 µg/mL (≈ 7.29 µM). Also, the “MIC P. acnes” value in assay [2] is given as over 64c ug/mL. Besides, the “MIC S. dublin” value in the assay with Salmonella dublin (Lane) is over 64 µg/mL. Moreover, the “MIC S. epidermidis” value in assay [3] was 16 µg/mL (≈ 14.6 µM). In assay [4], the “MIC E. coli” value is over 64 µg/mL. For the same compound, in assay [5], the “MIC P. aeruginosa” value was over 64 µg/mL.
